Experimental data as given in the NIST ThermoML archive (doi:10.1021/je9003959).

Experiment: refractive index (Na D-line) (dimensionless); xn = mol fraction of the nth substance listed
Settings: 101 kPa, Liquid, Standard Abbe refractometry

CCN1CCCC1=O [1-ethyl-2-pyrrolidinone] + O
refractive index
Settings	293 K	298 K	303 K	313 K	323 K
x1 = 0.022	1.35197	1.35144	1.34954	1.3488	1.34707
x1 = 0.05	1.37085	1.37012	1.3694	1.36692	1.36431
x1 = 0.1	1.39584	1.39478	1.39291	1.39022	1.38757
x1 = 0.2	1.42603	1.42432	1.42304	1.41887	1.41711
x1 = 0.3	1.44127	1.43983	1.43715	1.4331	1.42913
x1 = 0.4	1.44975	1.44776	1.44605	1.4418	1.43762
x1 = 0.5	1.4551	1.45307	1.45147	1.44694	1.44273
x1 = 0.6	1.45859	1.45647	1.45435	1.45035	1.44622
x1 = 0.7	1.46118	1.459	1.4568	1.4527	1.44864
x1 = 0.8	1.46326	1.46096	1.4586	1.45496	1.45075
x1 = 0.9	1.46478	1.4623	1.46016	1.45641	1.45217
x1 = 1	1.46461	1.46192	1.45791	1.45415	1.45147
